In one assay the target is BaF3(WT) (Homo sapiens, UniProt P00519). In words: WST (CCK-8) anti-proliferation assay, BaF3 WT cells. The following applies: read-out: BaF3(WT); anti-proliferative IC50, 72 h treatment, CCK-8, BaF3 WT.
The target in the next assay is BaF3(T315I) (Homo sapiens, UniProt P00519, T315I, cells depend on it). In words: WST (CCK-8) anti-proliferation assay, BaF3 T315I cells. The following applies: read-out: BaF3(T315I); anti-proliferative IC50, 72 h treatment, CCK-8, BaF3 T315I.

As for `O=C(Nc1ccc(OC(F)(F)Cl)cc1)c1cc2c(c(-c3ccn[nH]3)c1)C1(CC=CC1)C(=O)N2` [V-4, N-(4-(chlorodifluoromethoxy)phenyl)-2′-oxo-4′-(1H-pyrazol-5-yl)spiro[cyclopentane-1,3′-indolin]-3-ene-6′-carboxamide], the GI50 on BaF3(WT) stood at 43 nM; on BaF3(T315I) it was 292 nM.

In the case of `CC(C)n1cc(CO)c2cc(C(=O)Nc3ccc(OC(F)(F)Cl)cc3)cc(-c3cncnc3)c21` [XII-7, N-(4-(chlorodifluoromethoxy)phenyl)-3-(hydroxymethyl)-1-isopropyl-7-(pyrimidin-5-yl)-1H-indole-5-carboxamide], the GI50 on BaF3(WT) was 82 nM; on BaF3(T315I), 552 nM.

As for `CC1(C)C(=O)N(CCO)c2cc(C(=O)Nc3ccc(OC(F)(F)Cl)cc3)cc(-c3ccn[nH]3)c21` [V-6, N-(4-(chlorodifluoromethoxy)phenyl)-1-(2-hydroxyethyl)-3,3-dimethyl-2-oxo-4-(1H-pyrazol-5-yl)indoline-6-carboxamide], the values for the GI50 at BaF3(WT) and on BaF3(T315I) were 364 nM and 2860 nM, respectively.

Consider `CC1CN(C)c2c(-c3ccn[nH]3)cc(C(=O)Nc3ccc(OC(F)(F)Cl)cc3)cc21` (stereo not shown) [VII-39, N-(4-(chlorodifluoromethoxy)phenyl)-1,3-dimethyl-7-(1H-pyrazol-5-yl)indoline-5-carboxamide], for which the GI50 is 62 nM at BaF3(WT) and 1050 nM on BaF3(T315I).

As for `CC(C)N1CC(CN(C)C)c2cc(C(=O)Nc3ccc(OC(F)(F)Cl)cc3)cc(-c3ccn[nH]3)c21` (stereo not shown) [VII-27, N-(4-(chlorodifluoromethoxy)phenyl)-3-((dimethylamino)methyl)-1-isopropyl-7-(1H-pyrazol-5-yl)indoline-5-carboxamide], the GI50 at BaF3(WT) was 85 nM; at BaF3(T315I), 366 nM.

As for `CN(C)CCN1C(=O)C(C)(C)c2c(-c3ccn[nH]3)cc(C(=O)Nc3ccc(OC(F)(F)Cl)cc3)cc21` [V-7, N-(4-(chlorodifluoromethoxy)phenyl)-1-(2-(dimethylamino)ethyl)-3,3-dimethyl-2-oxo-4-(1H-pyrazol-5-yl)indoline-6-carboxamide], the values for the GI50 on BaF3(WT) and at BaF3(T315I) were 324 nM and 1540 nM, respectively.

Take `CC1CN(C(C)C)c2c(-c3ccn[nH]3)cc(C(=O)Nc3ccc(OC(F)(F)Cl)cc3)cc21` (stereo not shown) [VII-38, N-(4-(chlorodifluoromethoxy)phenyl)-1-isopropyl-3-methyl-7-(1H-pyrazol-5-yl)indoline-5-carboxamide]: the figures for the GI50 at BaF3(WT) and at BaF3(T315I) were 20 nM and 223 nM, respectively.

`CC(C)N1c2c(cc(C(=O)Nc3ccc(OC(F)(F)Cl)cc3)cc2-c2cncnc2)CC1C(=O)N(C)C` (stereo not shown) [VII-15, N5-(4-(chlorodifluoromethoxy)phenyl)-1-isopropyl-N2,N2-dimethyl-7-(pyrimidin-5-yl)indoline-2,5-dicarboxamide]: the values for the GI50 on BaF3(WT) and at BaF3(T315I) were 19 nM and 131 nM, respectively.

Consider `CC(C)N1c2c(cc(C(=O)Nc3ccc(OC(F)(F)Cl)cc3)cc2-c2ccn[nH]2)CC1C(=O)N1CCN(C)CC1` (stereo not shown) [VII-33, N-(4-(chlorodifluoromethoxy)phenyl)-1-isopropyl-2-(4-methylpiperazine-1-carbonyl)-7-(1H-pyrazol-5-yl)indoline-5-carboxamide], for which the GI50 amounted to 49 nM on BaF3(WT) and 163 nM at BaF3(T315I).

In the case of `CC1(C)c2c(cc(C(=O)Nc3ccc(OC(F)(F)Cl)cc3)cc2-c2ccn[nH]2)C(=O)N1CCN1CC[C@@H](O)C1` [IV-8, (R)—N-(4-(chlorodifluoromethoxy)phenyl)-2-(2-(3-hydroxypyrrolidin-1-yl)ethyl)-1,1-dimethyl-3-oxo-7-(1H-pyrazol-5-yl)isoindoline-5-carboxamide], the GI50 was 100 nM at BaF3(WT) and 6020 nM on BaF3(T315I).

On to `O=C(Nc1ccc(OC(F)(F)Cl)cc1)c1cc2c(c(-c3ccn[nH]3)c1)N(C1CC(CO)C1)CC2` (stereo not shown) [VII-12, N-(4-(chlorodifluoromethoxy)phenyl)-1-(3-(hydroxymethyl)cyclobutyl)-7-(1H-pyrazol-3-yl)indoline-5-carboxamide], for which the figures for the GI50 at BaF3(WT) and on BaF3(T315I) were 112 nM and 123 nM, respectively.

As for `CC(C)N1CC(C)(CO)c2cc(C(=O)Nc3ccc(OC(F)(F)Cl)cc3)cc(-c3ccn[nH]3)c21` (stereo not shown) [VII-41, N-(4-(chlorodifluoromethoxy)phenyl)-3-(hydroxymethyl)-1-isopropyl-3-methyl-7-(1H-pyrazol-5-yl)indoline-5-carboxamide], the values for the GI50 on BaF3(WT) and on BaF3(T315I) were 46 nM and 168 nM, respectively.

For `CC(C)N1CCc2cc(C(=O)Nc3ccc(OC(F)(F)Cl)cc3)cc(-c3cncnc3)c21` [VII-4, N-(4-(chlorodifluoromethoxy)phenyl)-1-isopropyl-7-(pyrimidin-5-yl)indoline-5-carboxamide], the GI50 at BaF3(WT) came out at 42 nM; at BaF3(T315I) it was 136 nM.

Take `CN1CCN(CCN2C(=O)c3cc(C(=O)Nc4ccc(OC(F)(F)Cl)cc4)cc(-c4ccn[nH]4)c3C2(C)C)CC1` [IV-6, N-(4-(chlorodifluoromethoxy)phenyl)-1,1-dimethyl-2-(2-(4-methylpiperazin-1-yl)ethyl)-3-oxo-7-(1H-pyrazol-5-yl)isoindoline-5-carboxamide]: the GI50 on BaF3(WT) came to 501 nM; at BaF3(T315I), 1570 nM.

In the case of `CC(C)N1c2c(cc(C(=O)Nc3ccc(OC(F)(F)Cl)cc3)cc2-c2ccn[nH]2)CC1C(=O)NCCN(C)C` (stereo not shown) [VII-32, N5-(4-(chlorodifluoromethoxy)phenyl)-N2-(2-(dimethylamino)ethyl)-1-isopropyl-7-(1H-pyrazol-5-yl)indoline-2,5-dicarboxamide], the results for the GI50 on BaF3(WT) and at BaF3(T315I) were 308 nM and 2160 nM, respectively.

For the compound `CC1(C)C(=O)Nc2cc(C(=O)Nc3ccc(OC(F)(F)Cl)cc3)cc(-c3ccn[nH]3)c21` [V-1, N-(4-(chlorodifluoromethoxy)phenyl)-3,3-dimethyl-2-oxo-4-(1H-pyrazol-5-yl)indoline-6-carboxamide], the GI50 at BaF3(WT) came to 45 nM; at BaF3(T315I), 71 nM.

As to `CC(C)N1CC(CO)c2cc(C(=O)Nc3ccc(OC(F)(F)Cl)cc3)cc(-c3ccn[nH]3)c21` (stereo not shown) [VII-43, N-(4-(chlorodifluoromethoxy)phenyl)-3-(hydroxymethyl)-1-isopropyl-7-(1H-pyrazol-5-yl)indoline-5-carboxamide], the values for the GI50 at BaF3(WT) and at BaF3(T315I) were 16 nM and 332 nM, respectively.

Consider `CC(C)N1c2c(cc(C(=O)Nc3ccc(OC(F)(F)Cl)cc3)cc2-c2cncnc2)CC1C(=O)O` (stereo not shown) [VII-21, 5-((4-(chlorodifluoromethoxy)phenyl)carbamoyl)-1-isopropyl-7-(pyrimidin-5-yl)indoline-2-carboxylic acid], for which the GI50 on BaF3(WT) was 158 nM; on BaF3(T315I), 1610 nM.

As to `COCCN(CCOC)C(=O)C1Cc2cc(C(=O)Nc3ccc(OC(F)(F)Cl)cc3)cc(-c3ccn[nH]3)c2N1C(C)C` (stereo not shown) [VII-30, N^5-(4-(chlorodifluoromethoxy)phenyl)-1-isopropyl-N2,N2-bis(2-methoxyethyl)-7-(1H-pyrazol-5-yl)indoline-2,5-dicarboxamide], the values for the GI50 at BaF3(WT) and on BaF3(T315I) were 16 nM and 94 nM, respectively.

On to `CC(C)n1cc(CO)c2cc(C(=O)Nc3ccc(OC(F)(F)Cl)cc3)cc(-c3ccn[nH]3)c21` [XII-8, N-(4-(chlorodifluoromethoxy)phenyl)-3-(hydroxymethyl)-1-isopropyl-7-(1H-pyrazol-5-yl)-1H-indole-5-carboxamide], for which the GI50 on BaF3(WT) came out at 57 nM; at BaF3(T315I) it was 344 nM.

For the origin of these results see patent US20220332701A1, “HETEROCYCLIC COMPOUNDS AS BCR-ABL INHIBITORS” (ASCENTAGE PHARMA (SUZHOU) CO., LTD., priority 2019, published 2022).
